Experiment [1] relates to E. coli O157/Nissle. In kind it is cell-based. Conditions: no honey.
Experiment [2] deals with H. pylori SS1. Description: Viability of H. pylori SS1 after overnight incubation with MGO or honey (drop plate CFU). In kind it is cell-based, Helicobacter pylori. The note with it: for Helicobacter pylori viable count: catalase treated. The method, then:
The H. pylori SS1 strain was obtained and initially cultured on Campylobacter Selective Agar (CSA) plates and incubated at 37° C. under microaerobic conditions (10% Co2) for 48 h. Following culture, the isolates were checked for purity (microscopy, catalase and oxidase), after which SS1 was cultured in Brucella broth supplemented with 5% Fetal Bovine Serum and 1% Vitox under microaerobic conditions with shaking for 24 h. The effect of 1) methylglyoxal (MGO), density 1.17 g/ml, 2) Honey M1: Manuka honey O50336-10 (MGO content=0.593 mg/g), 3) Honey M2=Honey M1 adjusted to a pH of 9.0, 4) Honey M3=Comvita Wound Care Honey 18+ (MGO content=0.6 mg/g) and 5) Honey C: Control honey (100% Australian Honey, Leabrook Farms, Australia) on H. pylori was determined. MGO at concentrations of 1, 5, 10, 20, 50 and 100 mg/L were prepared by dissolving an appropriate amount of MGO in Brucella broth. To ensure an equivalent concentration of MGO in the Manuka honeys, the appropriate weight of honey (Honey M1 and Honey M2=6.75 g), (Honey M3=6.67 g) was measured out, after which an equal volume of Brucella broth at 37° C. was added to the honey and this was vortexed to aid mixing. Following vortexing, an equal volume of catalase solution (2 mg/ml) prepared from bovine liver was added to negate the effect of hydrogen peroxide, and this was again vortexed to aid mixing. The total volume was then adjusted to 40 ml using Brucella broth. […] The control Honey C was prepared in a similar fashion starting with an initial weight=6.71 g). To avoid contamination with lactic acid bacteria that are commonly present in honey (e.g. Leuconostoc citreum and Lactococcus garvieae), preparations of honey M1 and Honey C were filter sterilized through 0.22 µm pore size membrane filters prior to use in the in vitro assay. The Comvita wound care 18+ honey was not filter sterilised as this product undergoes sterilisation on manufacture. […] H. pylori were grown in broth culture overnight as described above. Following incubation, cells were washed once and resuspended in Brucella broth to an Optical Density (OD) 600 1.5. Ten pl of the microbial suspension was then inoculated into wells of a 96-well microtiter plate containing 200 pl of broth, supplemented with a range of concentrations of MGO (0, 1, 5, 10, 20, 50 and 100 mg/L), or an equivalent concentration of MGO contained in the Manuka honeys, or the same percentage of control honey. Each of the concentrations of MGO, MGO in the Manuka honeys and the control honey were tested in triplicate. Following addition of H. pylori to the microtiter plates, these were incubated under microaerobic conditions (10% CO2) overnight. Following incubation the number of viable colonies in the wells was assessed using the drop plate method. Following incubation the number of visible colonies on CSA agar plates were counted and the colony forming units (CFU)/ml calculated.

The test system of experiment [3] is IL-1β. Briefly: Cytokine production by peripheral blood mononuclear cells, IL-1β. The experiment is classed as cell-based. Conditions: human PBMC supernatants; FIG. 9. The method, then: (§1) An experiment was completed using three honey samples, the first being a high UMF manuka honey containing 1002 mg of MGO/kg, a moderate UMF manuka honey containing 649 mg of MGO/kg, a clover honey containing minimal MGO/kg and pure MGO alone. Results were compared against a negative control with cells alone […] and PHA as the inflammatory agent. Human blood was collected from six donors and peripheral blood mononuclear cells were separated by Ficoll gradients. Donor bloods were processed in pairs. The experiments tested the effect of the honey on the blood cells and the levels of cytokines produced. Supernatents from cells incubated with varying honey and MGO concentrations were collected and assayed for a number of pro and anti-inflammatory cytokines. Cytokines are molecules secreted by cells that are involved in communication between cells. Cytokines bind to specific receptors on cell surfaces and the signals then created can alter cellular functions. The cytokines tested in this study were IL-1β, IL-10 and […]. Cytokines were measured using a biorad, bioplex suspension array system.

The subject of experiment [4] is neutrophils. Briefly: Neutrophil superoxide production with honeys of increasing MGO. The experiment is classed as cell-based. Conditions: increasing MGO concentrations in honey. The text has this:
The inventors conducted an experiment to determine whether increasing MGO concentrations also increase the ability of honey with the MGO to prevent or slow neutrophils from making superoxides (a part of the inflammatory response).

Experiment [5] relates to IL-10. Description: Cytokine production by peripheral blood mononuclear cells, IL-10. The experiment is classed as cell-based. Conditions: human PBMC supernatants; FIG. 10. Here is the method:
as §1

The test system of experiment [6] is TNFα. Briefly: Cytokine production by peripheral blood mononuclear cells, TNFα. The experiment is classed as cell-based. Conditions: human PBMC supernatants; FIG. 11. Here is the method: as §1
Experiment [7] concerns Helicobacter pylori. Description: Helicobacter pylori infected mice fed honey. Conditions: honey 2.8 g/kg body weight, MGO given in sugar solution. In kind it is in vivo. The text has this:
An experiment was completed feeding manuka honey with a UMF 22 to Helicobacter pylori infected mice at a rate of 2.8 g/kg body weight honey.

Where two headings read alike, the source gives them in different places.

This note sets out measurements from patent US20120021061A1, “MEDICAL AND NUTRITIONAL FORMULATIONS” (Comvita New Zealand Limited, priority 2008, published 2012).

For Catalase, the “Mean inhibition zone (n = 3)” value in experiment [1] (catalase 1000 U/mL alone) is 0.0 mm.
For `OO` [Peroxide, hydrogen peroxide], the “Mean inhibition zone (n = 3)” value in experiment [1] (peroxide 36.7 mM + catalase 1000 U/mL) is 0.0 mm; in experiment [1] (peroxide 36.7 mM alone) it was 3.3 mm.
With `CC(=O)C=O` [MGO (pH 9), methylglyoxal], the “Helicobacter pylori viable count” value is listed as 6.9×10^6 CFU/ml in experiment [2] (MGO conc 50 mg/L, honey conc 8.4%, listed as MGO at pH 9) and 1.7×10^6 CFU/ml in experiment [2] (MGO conc 100 mg/L, honey conc 16.7%, listed as MGO at pH 9).
On to `CC(=O)C=O` [MGO, methylglyoxal], for which the IL-1β production result in experiment [3] was “no effect”. In addition, the “Ability to prevent or slow neutrophils from making superoxides” value in experiment [4] is given as “made no difference at all”. In experiment [2] (MGO alone or equivalent MGO in honey), the “MGO concentration at which CFU of H. pylori SS1 were reduced” value is on record as ≥ 20 mg/L. Also, the “Helicobacter pylori viable count” value is on record as 7.1×10^6 CFU/ml in experiment [2] (MGO conc 20 mg/L, honey conc 4.2%); 7.0×10^5 CFU/ml in experiment [2] (MGO conc 50 mg/L, honey conc 8.4%); 1.1×10^4 CFU/ml in experiment [2] (MGO conc 100 mg/L, honey conc 16.7%). For the same compound, the IL-10 values entry in experiment [5] is reported as “not affected”. Besides, the TNFα production result in experiment [6] was “no effect”. Also, in experiment [7], the “H. pylori bacteria numbers in infected mice” value is recorded as “does not reduce bacteria numbers alone”.
